Data published in patent publication US20090181934A1, “Organic Compounds” (Novartis AG, priority 2007, published 2009).
Structures can show the parent of a compound that is named as a salt.

Target: adenosine A2A receptor (Homo sapiens, UniProt P29274)
Assay: adenosine A2A receptor agonist assay (method of Murphree et al)
Format: binding
Details: method of L. J. Murphree et al, Molecular Pharmacology 61, 455-462 (2002)
Source text: The compounds of (A) activate the adenosine […] receptor, i.e. they act as A2A receptor agonists.

Chain of adenosine A2A receptor (P29274 whole entry): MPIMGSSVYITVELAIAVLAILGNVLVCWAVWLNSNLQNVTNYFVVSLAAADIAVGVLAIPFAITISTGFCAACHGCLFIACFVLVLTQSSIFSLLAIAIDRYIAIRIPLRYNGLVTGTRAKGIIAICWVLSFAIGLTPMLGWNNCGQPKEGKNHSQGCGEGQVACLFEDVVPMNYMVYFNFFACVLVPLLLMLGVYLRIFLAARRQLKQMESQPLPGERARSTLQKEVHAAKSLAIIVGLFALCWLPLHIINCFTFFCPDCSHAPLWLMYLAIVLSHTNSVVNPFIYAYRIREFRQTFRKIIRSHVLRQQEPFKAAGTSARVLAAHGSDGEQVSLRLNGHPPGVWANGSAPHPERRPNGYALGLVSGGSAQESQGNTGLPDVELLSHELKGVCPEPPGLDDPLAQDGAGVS

## COC(=O)N[C@H]1C[C@@H](n2cnc3c(NCC(c4ccccc4)c4ccccc4)nc(N4CC[C@@H](NC(=O)Nc5cccnc5)C4)nc32)[C@H](O)[C@@H]1O [Example 1, ((1S,2R,3S,4R)-4-{6-(2,2-Diphenyl-ethylamino)-2-[(R)-3-(3-pyridin-3-yl-ureido)-pyrrolidin-1-yl]-purin-9-yl}-2,3-dihydroxy-cyclopentyl)-carbamic acid methyl ester hydrochloride]
  Ki: 4 nM
